# Measured values from patent US20240425457A1, “COMPOSITIONS AND METHODS FOR SUPPRESSING AND/OR TREATING METABOLIC DISEASES AND/OR A CLINICAL CONDITION THEREOF” (CK Biotech Inc., priority 2018, published 2024).
# “Also recorded” adds a separate entry of the source.
# Experiments:
# [1] = test system: HFD-induced diabetes mice; assay: HFD-induced diabetes mice, A3334 versus rosiglitazone, one 5-day course; assay type: in vivo
# Excerpt: Referring now to FIG. 37A-37E, C57BL/6N mice were fed HFD for 8 weeks to induce diabetes. Then, the mice were maintained on HFD and treated with either 25 mpk A3334 or 25 mpk rosiglitazone (RSG) once per day for next 5 days. Then, the mice were maintained HFD condition without any drug treatments (e.g., A3334 or RSG) for the next several weeks. Rosiglitazone (RSG) is a diabetes drug in thiazolidinedione (TZD) class which works as an insulin sensitizer functioning via binding PPAR in fat cells.
# Referring now to FIG. 45A-45F, C57BL/6N mice were induced diabetes by HFD for 8 weeks, and then treated with A3334 (25 mpk) or RSG (25 mpk) once per day for 5 days starting at week 8 under HFD condition. Animals were sacrificed at week 11.
# [2] = test system: HFD+STZ-induced diabetes mice; assay: HFD-fed and STZ-induced diabetes mice; assay type: in vivo
# Excerpt: Animals. The generation of Cxxc5^−/− mice has been described previously. Cxxc5 heterozygous mice were intercrossed for four generations to obtain littermate wild-type and Cxxc5^−/− mice and were maintained on a C57BL/6 background. Six-week-old Cxxc5^+/+ and Cxxc5^−/− mice were fed HFD for 8 weeks. Wild-type male C57BL/6 mice (KOATECH, Seoul, Korea) were fed HFD consisting of 60% calories from fat (Research Diet, D12492) for 8 weeks. To validate that the insulin resistance mouse model was successfully established, fasting glucose levels were assessed with a One Touch Ultra glucometer (LifeScan). Subsequently, each HFD-fed mouse with a fasting glucose level higher than 16.7 mmol/L was orally administered A3334 (25 mg kg^−1), sitagliptin (50 mg kg^−1), or metformin (100 mg kg^−1) each day for 5 days at weeks 8 and 12. After the removal of the drugs, mice were maintained for 3 weeks on the HFD. To monitor pancreas regeneration, six-week-old Cxxc5^+/+ and Cxxc5^−/− mice were fed an HFD as above. After dietary treatment for 4 weeks, the mice were intraperitoneally injected with STZ (50 mg/kg/d) for 1 week and the control group were injected with saline. After 2 weeks, Cxxc5^+/+ mice were administered A3334 (25 mg kg^−1) and sitagliptin (50 mg kg^−1) per day by oral gavage for 4 weeks. For GTT or ITT, mice were injected with D-glucose (1.5 g/kg body weight) after overnight starvation or human insulin (0.75 units/kg body weight) after 4 h starvation, respectively. Tail blood was drawn at 0, 15, 30, 60, 120, 180 min intervals and blood glucose level was measured with a One Touch Ultra glucometer. All mice were maintained under temperature-controlled and light-controlled (standard 12 h light/dark cycle) conditions and provided with food and water ad libitum. All protocols were reviewed and approved by the Institutional Review Board of Severance Hospital, Yonsei University College of Medicine (09-013).
# β-Cell and α-cell mass analyses. All of the β-cell, α-cell and the cross-sectional area of all pancreatic tissue were quantified. Total β-cell and α-cell area and total pancreas mass for each animal was calculated as the sum of the determinations from each of the 8-10 segments of pancreas. A total of 10-15 beta cells was counted for each pancreas.
# A3334 suppressed diabetes induced by multiple low-dose STZ-induced diabetes. Referring now to FIG. 40A-40G, C57BL/6N mice were induced diabetes by HFD for 8 weeks, and induced diabetes by injection of 50 mpk streptozotosin (STZ) for 1 week. After 2 weeks, A3334 (25 mpk) or SITA (25 mpk) was applied for 4 more weeks, histological analyses of pancreas were done.
# Wnt/β-catenin signaling = Wnt/β-catenin signaling (TOPFlash) reporter luciferase assay in HEK293-TOP cells; assay type: cell-based
# Experimental: Luciferase reporter assay. HEK293-TOP cells were seeded in 24-well plates. Cells were treated with A3334 at a concentration of 1, 5, and 10 μM for 24 h. Total cell lysates were extracted with 35 μl of 5× Reporter Lysis Buffer per well according to the manufacturer's instructions (Promega). A total of 35 μl of luciferin was added and luciferase activity was measured using a Fluorstar Optima microplate reader.
# Wnt/β-catenin signaling reporter luciferase assay. HEK293-TOP cells were seeded were seeded in 96-well plates at a density of 2.5×10^4 cells per well. Cells were treated with individual chemicals at a concentration of 1, 5, 10 µM for 24 h. Total cell lysates were extracted with 25 µl of 5× Reporter Lysis Buffer per well according to the manufacturer's instruction (Promega, Madison, WI). Luciferin (25 µl) was added and luciferase activity was measured using FLUOSTAR (BMG labtech, Offenburg, Germany).
# db/db diabetes mice = assay: db/db diabetes mice; assay type: in vivo; settings: 1 and 2 weeks of treatment
# [3] = solubility of A3334 in oil or surfactants (LC/MS/MS); assay type: physicochemical; settings: 37 °C, thermodynamic from solid
# Experimental: To determine emulsion solution, solubility of A3334, for example, is measured in the several oil and surfactants. A3334 is mixed with oil or surfactants (1 ml) and vortexed for 30 min. The equilibrium state was reached by shaking for 72 hours at 37° C. with 50 rpm speed in an incubator, then centrifuged at 16,100×g for 5 min. The supernatant was diluted with methanol and analyzed by LC/MS/MS (see e.g., Table 7).
# ‘Waters xevo TQ MS-ACQUITY UPLC System’ is used as an analyses equipment. ACQUITY UPLC® BEH(C18, 1.7 μm, 2.1×50 mm) column was used for analyses at room temperature. Mobile phase is used after filtration of deionized distilled water including 0.1% formic acid and acetonitrile including 0.1% formic acid (30:70, v/v) with […] membrane filter. The flow rate is 0.25 ml/min and it is analyzed by injection of 0.5 μl sample. There are LC/MS/MS conditions for Decursin analysis; Cone 38 V, Collison 32 V. Precursor ion and daughter ion are monitored 329 and 229 m/z, respectively.
# [4] = 25 mpk, 5 days from week 8, sacrifice week 11
# [5] = HFD 8 weeks, then 25 mpk once per day for 5 days
smiles,measurement,setting,value
"COc1ccc2c(c1)/C(=C1/Nc3ccccc3/C1=N\O)C(=O)N2 [Compound A3334, 5-Methoxyindirubin-3′-oxime]",liver steatosis,[1]; [4],suppressed by A3334
same,mRNA levels of lipogenesis markers in liver,[1]; [4],suppressed by A3334
same,serum insulin and total cholesterol levels,[1]; [4],abolished by A3334
same,ALT and AST in blood serum,[1]; [5],not evident
same,GTT and ITT,[1]; [5],significant reduction of both GTT and ITT
same,body weight gain,[1]; [5],suppressed the body weight gain induced by HFD
same,fasting glucose level after termination of drug treatment,[1]; [5],maintained at low level for several weeks
same,"CXXC5, β-catenin, crown like structures, PPARγ and macrophage markers","[1]; HFD 8 weeks, then 25 mpk once per day for 5 days, immunostaining","suppressed overexpression of CXXC5, increased expressions of β-catenin, suppressed formation of crown like structures (CRC), and suppressed the expression of PPARγ and macrophage markers"
same,PPARγ mRNA level,"[1]; white adipose tissue, 25 mpk",not increased by A3334
same,mRNA of M1 and M2 macrophage markers,"[1]; white adipose tissue, 25 mpk","decreased and increased by A3334, respectively"
same,"mRNA of Wnt/β-catenin signaling target genes (Dvl1, Wisp1, Fosl1)","[1]; white adipose tissue, 25 mpk",increased by A3334
same,body weight,[2],slightly increased
same,proliferative status of β-cells (PCNA+),[2],exhibited normal proliferative status after the A3334 treatment
same,glucose tolerance test and insulin tolerance test,[2]; 4 weeks p.o.,improved the results from the glucose tolerance test (GTT) and insulin tolerance test (ITT)
same,blood / fasting glucose level,"[2]; A3334 25 mpk, SITA 25 mpk, 4 weeks",lowered the glucose level; also recorded: more significantly lowered by A3334 compared to that by SITA
same,β-cell and α-cell mass,[2]; IHC insulin and glucagon,"increased and decreased, respectively, by the A3334 treatment"
same,"pancreatic islets / β-cells (insulin, β-catenin, PCNA, Pdx-1)",[2]; histology/IHC,"restores β-cell mass and functions; also recorded: showed normal islets with insulin secretion and increased expression levels of β-catenin, PCNA, and Pdx-1; also recorded: mostly protected with the A3334 treatment"
same,Wnt/β-catenin (TOPFlash) reporter activity,Wnt/β-catenin signaling,dose-dependent increment of the TOPFlash reporter activity
same,fasting glucose level,db/db diabetes mice,reduces fasting glucose levels
same,solubility at 72 h,"[3]; oil or lipid, Oil: Olive oil",830 µg/mL
same,solubility at 72 h,"[3]; oil or lipid, Oil: Sunflower oil",1350 µg/mL
same,solubility at 72 h,"[3]; organic solvent or mixture, Co-Surfactant: Propylene glycol",250 µg/mL
same,solubility at 72 h,"[3]; organic solvent or mixture, Co-Surfactant: Transcutor P",1150 µg/mL
same,solubility at 72 h,"[3]; KOLLIPHOR EL (listed as oil), aqueous with cosolvent or surfactant or cyclodextrin, Oil: KOLLIPHOR EL",5400 µg/mL
same,solubility at 72 h,"[3]; PEG 400 (co-surfactant), organic solvent or mixture, Co-Surfactant: PEG 400",3100 µg/mL
same,solubility at 72 h,"[3]; Tween 20 (surfactant), aqueous with cosolvent or surfactant or cyclodextrin, Surfactants: Tween 20",4580 µg/mL
same,solubility at 72 h,"[3]; Tween 80 (surfactant), aqueous with cosolvent or surfactant or cyclodextrin, Surfactants: Tween 80",4920 µg/mL
